From publication PMC6452685, “Lysyl-tRNA synthetase as a drug target in malaria and cryptosporidiosis” (Proceedings of the National Academy of Sciences of the …, 2019) come the findings set out here.

Broadly, the solubility is the concentration that dissolves in the medium under given conditions. Broadly, the Cmax is the highest concentration seen after dosing. Broadly, the bioavailability is dose-corrected exposure relative to a reference, in per cent. For orientation: Tmax means the time from dosing to the highest level. What is called AUC is the area under the concentration-time curve, a measure of exposure.

In brackets after ≈: the same amount, converted by molar mass.

One data set in a line: FaSSIF solubility. It is filed as physicochemical. As to conditions: 37 °C, thermodynamic from solid; FaSSIF pH 6.5. How it is done: 4.1 Aque ous s olubilit y
Compounds were subject to serial dilution from 10 mM to 0.47 mM in DMSO. An al i quot was then mi xed wi th Mi l li Q water to obtai n a n aq ueous di l uti on pl ate wi th a fi na l concentrati on rang e of 250 - 13 µM, with a final DMSO concentration of 2. 5 % (v /v ). Triplicate al i quots were transferred to a fl at bottomed pol ystyrene pl ate whi ch was i mmedi ately read o n the NEPHELOstar (BMG Lab Techn ol ogi es). […]
Drug dissolution in biorelevant media which simulates the liquid environment within the upper […]
into the blood stream and is more a more accurate determination of oral d os e s ol ubi li t y t han si mple aqueous sol ubi l i ty performed at neutral pH and wi thout any associ ated bil e aci ds and fats. This method i s based on that of Fagerberg et al. (16) where the FaSSIF has pH 6.5 a nd c ontains 3 mM sodium taurocholate and 0.7 5 mM lectithin. FaSSIF blank only has pH 6.5 and is devoid of salts and […]
[…] The sampl e i s then centri fuged at 10,00 0 rpm for 3 mi n befo re th e supernatant i s subject to HPLC analysis at 254 nm UV detecti on wavel ength. Typi call y, 10 µ l supernatant injections are suffi ci ent to achi eve peak areas whi ch fal l wi thi n the 6 p oi nt standar d curv e of anal y te concentrati ons i njected onto the col umn, al thoug h thi s may be i ncreas ed up to 40 µl for more insoluble compounds where necessary. […]

The nature of data set [1]: In vivo pharmacokinetics in mouse. From the text: 5. In vi vo pharmacokinetic and efficacy studies
5.1 In viv o ph armacokinetics (Dundee)
The l ev el of each comp ound i n mouse bl ood was determi ned by UPLC -MS/MS as previously re port e d (18). Pharmacokinetic parameters were derived from the blood c oncent ration time curve usi ng PKsol uti ons software v 2.0 (Summi t Research Servi ces, USA). […]

The subject of data set [2] is Nluc-expressing transgenic C. parvum. As to the kind of experiment: Anti-Cryptosporidium in vivo efficacy in IFN-γ-knockout mice (Nluc C. parvum). On the set-up: species or system mouse. As to conditions: 20 mg/kg orally once a day for 7 d. How it is done: INF-γ–knockout mice ([28], [29]) were infected orally with Nluc-expressing transgenic C. parvum oocysts. Treatment started upon patency 4 d postinfection (p.i.), and mice were treated orally once a day for 7 d. Infection was monitored daily by luciferase measurements in pooled feces of the entire cage. Mice were followed for 3 wk after completion of drug treatment. […] NOD SCID gamma mice were infected with C. parvum oocysts ([26]). Treatment started 7 d p.i., and mice were treated orally once a day for 7 d. The study was run with four mice per cage; infection was monitored by quantitative PCR on day eight for individual mice, and data are shown as oocysts per milligram of feces. […]
Data analysis was performed using GraphPad Prism 7.0 (GraphPad S oftware), Excel 2016 (Microsoft ) and R free so ftware (https://www.r-project.org) for data pl otti ng and s tati s ti cal model li ng. […]
5. 4 M eas urement of a nt i-Cryptosporidium in vivo efficacy in IFN-γ-knockout mice (Georgia) The Nl uc-C. parvum IFN-γ-knockout (IFN-γ KO) m ouse in vivo experiments were run in acco rdance with the publ i s hed method (22). Briefly, female C57BL/ 6 IFN-γ KO mi ce, aged 6–8 weeks were infected with 10,000 C. parvum UG A1 Nl uc (Vi naya k et al 2015, Natu re) tra ns g eni c oocys ts . […]

`O=C(NCC1(O)CCC(F)(F)CC1)c1cc(=O)c2cc(F)ccc2o1` [Compound 5] came in with a solubility at 5 h in “FaSSIF solubility” of 255 µM (≈ 90.6 µg/mL). Further, in data set [1] (after oral dosing), the “compound present in mouse stools” value is 17 % of oral dose. The AUC(0-t) in data set [1] (female, BALB/c, whole blood, po, orally, 10 mg/kg, read-out: Mouse PK orally AUC0–1440) was in the range of 21700 to 50000 ng·h/mL. In addition, in data set [1] (female, BALB/c, whole blood, po, orally, 10 mg/kg, read-out: Mouse PK orally Cmax), the Cmax was 5400 ng/mL. Further, the bioavailability in data set [1] (female, BALB/c, whole blood, po, orally, 10 mg/kg, read-out: Mouse PK orally F% (oral bioavailability)) was determined as 100%. For the same molecule, in data set [1] (female, BALB/c, whole blood, po, orally, 10 mg/kg, read-out: Mouse PK orally Tmax), the Tmax came out at 2 h. The AUC in data set [1] (female, Balb/c, whole blood, iv, intravenously, 3 mg/kg, read-out: Mouse PK intravenously AUC (converted)) is 14800 ng·h/mL. Further, in data set [1] (female, Balb/c, whole blood, iv, intravenously, 3 mg/kg, read-out: Mouse PK intravenously T1/2 (converted)), the half-life was 2.5 h. Moreover, the Vd in data set [1] (female, Balb/c, whole blood, iv, intravenously, 3 mg/kg, read-out: Mouse PK intravenously Vdss) is 1 L/kg. Further, the “Mouse PK intravenously Clb” value in data set [1] (intravenously, 3 mg/kg) is 3.4 mL⋅min^−1⋅kg^−1. In addition, in data set [1] (orally, 10 mg/kg), the “Mouse PK orally F% (oral bioavailability)” value is recorded as “completely bioavailable”. Besides, the parasite shedding entry in data set [2] (INF-γ–knockout mice) was “below detection level”. The “reduction in parasite levels compared with control” value in data set [2] (INF-γ–knockout mouse, day 8) is reported as 10,000 fold.
